Experimental data from patent publication US5985589A, “Lipid kinase” (ICOS Corporation, priority 1999, dated 1999).

Test system: p110δ
Assay: PI 3-kinase activity of immunoprecipitated FLAG-tagged p110δ (lipid kinase assay, TLC/autoradiography)
Type: biochemical, human
Details: at 100 nM wortmannin; p110δ immunoprecipitated from transfected COS cells
Experimental: The FLAG-tagged p110δ was expressed by transfecting pCDNA3:p110δFLAG into COS cells using DEAE dextran. Three days after transfection, expression of p110δ was determined by immunoprecipitations and western blotting using the M2 monoclonal antibody (Kodak Scientific Imaging Systems) according to the manufacturer's instructions. PI 3-kinase activity was determined as described [Hu et al., Mol. Cell. Biol., 13:7677-7688 (1993)].
To determine the PI 3-kinase activity of p110δ, 5μl of immunoprecipitated p110δ was mixed with 1 μl of PI/EGTA and incubated at room temperature for 10 minutes [PI/EGTA is 10 mg/ml PI(Sigma) in CHCl3, which has been dried under a vacuum, resuspended in 20 mg/ml DMSO in the presence or absence of various concentrations of the PI3 kinase inhibitor wortmannin and diluted 1:10 in 5 mM EGTA] and added to 1 μl 10× HM buffer (200 mM HEPES pH7.2, 50 mM MnCl2), 0.5 μl γ^32 PATP (10 mCi/ml-300 Ci/mmol), 1 μl 100 μM ATP, and 1.5 μl H2 O and incubated at 30° C. for 15 minutes. The reactions were terminated by addition of 100μl 1M HCl. Lipids were extracted with 200 μl CHCl3 /MeOH (1:1) by vortexing for 1 minute followed by centrifugation at 16,000×g for 2 minutes at room temperature. The lipids were further extracted with 80 μl 1M HCl/MeOH (1:1) by vortexing for 1 minutes, followed by centrifugation at 16,000×g for 2 minutes at room temperature. […]

COC[C@H]1OC(=O)c2coc3c2[C@@]1(C)C1=C(C3=O)[C@@H]2CCC(=O)[C@@]2(C)C[C@H]1OC(C)=O [wortmannin]
inhibition of PI 3-kinase activity (generation of phosphorylated lipids): approximately 50%
